In patent US12473295B2, “Substituted straight chain spiro derivatives” (Janssen Pharmaceutica NV, priority 2019, dated 2025):
Structures can show the parent of a compound that is named as a salt.

How the values were obtained:
OCI-AML3 cells = experiment: Proliferation assay (spheroid growth, 8 days), OCI-AML3; format: cell-based, human; conditions: Homo sapiens, OCI-AML-3, […], OCI-AML3, 8 days
Summary of the method: (§1)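 200 MOLM14 (MLL-AF9), 200 OCI-AML3 (NPM1c) or 300 KO-52 (MLL wildtype) cells were grown as spheroids in ultra-low attachment wells with compound, 0.3% DMSO, for 8 days at 37 °C. Confluence was imaged on day 8, normalized to DMSO and top-dose reference compound. IC50 came from a variable-slope fit constrained 0–100%.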

[1] = target: menin/MLL (terbium chelate-labeled menin, FITC-MBM1 peptide) (Homo sapiens (Human), UniProt O00255); experiment: Menin/MLL homogenous time-resolved fluorescence (HTRF) assay; format: binding; conditions: HTRF-30 min incubation IC50, 30 min incubation;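 also: IC50 from percent inhibition of HTRF signal, normalized between wells without competitor and wells with a saturating competitor that displaces FITC-MBM1 from His-tagged menin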
Chain of menin/MLL (terbium chelate-labeled menin, FITC-MBM1 peptide) (O00255 other isoform, or with tags, fused parts or gaps): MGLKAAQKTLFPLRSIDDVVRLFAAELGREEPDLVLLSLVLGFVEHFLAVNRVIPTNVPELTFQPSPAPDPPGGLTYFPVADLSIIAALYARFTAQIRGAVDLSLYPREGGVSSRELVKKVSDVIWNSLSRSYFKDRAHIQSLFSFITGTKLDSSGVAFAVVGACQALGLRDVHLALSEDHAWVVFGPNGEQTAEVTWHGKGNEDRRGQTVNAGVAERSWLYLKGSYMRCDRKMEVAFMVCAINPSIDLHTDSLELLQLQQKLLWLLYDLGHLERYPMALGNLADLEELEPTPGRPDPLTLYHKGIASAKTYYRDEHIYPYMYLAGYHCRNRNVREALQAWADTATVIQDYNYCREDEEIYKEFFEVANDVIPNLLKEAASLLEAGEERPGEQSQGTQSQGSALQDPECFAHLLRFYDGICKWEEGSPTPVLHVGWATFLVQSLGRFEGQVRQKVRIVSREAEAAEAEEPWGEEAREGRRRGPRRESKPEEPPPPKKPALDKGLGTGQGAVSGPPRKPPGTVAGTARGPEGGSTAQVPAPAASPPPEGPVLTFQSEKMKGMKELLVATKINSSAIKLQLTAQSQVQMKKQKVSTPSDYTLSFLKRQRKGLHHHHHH

MOLM14 cells = experiment: Proliferation assay (spheroid growth, 8 days), MOLM14; format: cell-based, human; conditions: Homo sapiens, MOLM-14, […], MOLM14, 8 days; read-out: spheroid assay_OneTime MOLM14 IC50;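 also: spheroid size read as confluence by live-cell imaging, compounds added at a range of concentrations with 0.3% DMSO, DMSO-treated wells = 0%, highest reference dose = low control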
MEIS1 mRNA = MEIS1 mRNA expression assay (Quantigene Singleplex) in MOLM14 cells; format: cell-based, human; conditions: Homo sapiens, MOLM-14, 48 h, 48 hours incubation;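 also: MEIS1 transcript levels read by probe hybridization and normalized to RPL28 mRNA, with IC50 fitted to fold changes across a rising compound concentration series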
KO-52 cells = experiment: Proliferation assay (spheroid growth, 8 days), KO-52 control cell line; format: cell-based, human; conditions: Homo sapiens, […], read-out: spheroid assay_OneTime KO-52 IC50
Summary of the method: as §1

SMILES	IC50 (OCI-AML3 cells)	IC50 [1]	IC50 (MOLM14 cells)	IC50 (MEIS1 mRNA)	IC50 (KO-52 cells)
CCN(C(=O)c1cc(F)ccc1Oc1nncnc1N1CCC2(C1)CN([C@H](C[C@@H](CN(C)C)OC)C(C)C)C2)C(C)C (single isomer, unassigned) [Compound 315, 2-((5-(2-((3*R,5*S)-6-(dimethylamino)-5-methoxy-2-methylhexan-3-yl)-2,6-diazaspiro[3.4]octan-6-yl)-1,2,4-triazin-6-yl)oxy)-N-ethyl-5-fluoro-N-isopropylbenzamide fumarate]	1090 nM	0.51 nM	290 nM	~330 nM	> 15000 nM
CCN(C(=O)c1cc(F)ccc1Oc1nncnc1N1CCC2(C1)CN([C@H](C[C@@H](O)CN(C)C(C)C)C(C)C)C2)C(C)C (single isomer, unassigned) [Compound 323, N-ethyl-5-fluoro-2-((5-(2-((3*R,5*R)-5-hydroxy-6-(isopropyl(methyl)amino)-2-methylhexan-3-yl)-2,6-diazaspiro[3.4]octan-6-yl)-1,2,4-triazin-6-yl)oxy)-N-isopropylbenzamide fumarate]	170 nM	0.49 nM	110 nM	62 nM	13400 nM
CCN(C(=O)c1cc(F)ccc1Oc1nncnc1N1CCC2(C1)CN([C@H](C[C@H](O)CN(C)C(C)C)C(C)C)C2)C(C)C (single isomer, unassigned) [Compound 325, N-ethyl-5-fluoro-2-((5-(2-((3*R,5*S)-5-hydroxy-6-(isopropyl(methyl)amino)-2-methylhexan-3-yl)-2,6-diazaspiro[3.4]octan-6-yl)-1,2,4-triazin-6-yl)oxy)-N-isopropylbenzamide fumarate]	190 nM	~0.16 nM	16 nM	15 nM	> 15000 nM
CCN(CC)C[C@H](O)C[C@H](C(C)C)N1CC2(CCN(c3ncnnc3Oc3ccc(F)cc3C(=O)N(CC)C(C)C)C2)C1 (single isomer, unassigned) [Compound 334, 2-((5-(2-((3*R,5*R)-6-(diethylamino)-5-hydroxy-2-methylhexan-3-yl)-2,6-diazaspiro[3.4]octan-6-yl)-1,2,4-triazin-6-yl)oxy)-N-ethyl-5-fluoro-N-isopropylbenzamide fumarate]	130 nM	0.079 nM	12 nM	11 nM	> 15000 nM
CCN(CC)C[C@H](O)C[C@@H](C(C)C)N1CC2(CCN(c3ncnnc3Oc3ccc(F)cc3C(=O)N(CC)C(C)C)C2)C1 (single isomer, unassigned) [Compound 336, 2-((5-(2-((3*S,5*R)-6-(diethylamino)-5-hydroxy-2-methylhexan-3-yl)-2,6-diazaspiro[3.4]octan-6-yl)-1,2,4-triazin-6-yl)oxy)-N-ethyl-5-fluoro-N-isopropylbenzamide fumarate]	870 nM	0.21 nM	70 nM	61 nM	> 15000 nM
CCN(C)C[C@@H](O)C[C@H](C(C)C)N1CC2(CCN(c3ncnnc3Oc3ccc(F)cc3C(=O)N(CC)C(C)C)C2)C1 (single isomer, unassigned) [Compound 342, N-ethyl-2-((5-(2-((3*S,5S)-6-(ethyl(methyl)amino)-5-hydroxy-2-methylhexan-3-yl)-2,6-diazaspiro[3.4]octan-6-yl)-1,2,4-triazin-6-yl)oxy)-5-fluoro-N-isopropylbenzamide fumarate]	25 nM	0.17 nM	10 nM	78 nM	23 nM
CCN(C(=O)c1cc(F)ccc1Oc1nncnc1N1CCC2(C1)CN([C@H](C[C@H](O)CN(C)CCOC)C(C)C)C2)C(C)C (single isomer, unassigned) [Compound 352, N-ethyl-5-fluoro-2-((5-(2-((3*R,5S)-5-hydroxy-6-((2-methoxyethyl)(methyl)amino)-2-methylhexan-3-yl)-2,6-diazaspiro[3.4]octan-6-yl)-1,2,4-triazin-6-yl)oxy)-N-isopropylbenzamide fumarate]	150 nM	0.077 nM	18 nM	130 nM	> 15000 nM
CCN(C(=O)c1cc(F)ccc1Oc1nncnc1N1CCC2(C1)CN([C@H](C[C@@H](O)CN(C)CCOC)C(C)C)C2)C(C)C (single isomer, unassigned) [Compound 356, N-ethyl-5-fluoro-2-((5-(2-((3*R,5R)-5-hydroxy-6-((2-methoxyethyl)(methyl)amino)-2-methylhexan-3-yl)-2,6-diazaspiro[3.4]octan-6-yl)-1,2,4-triazin-6-yl)oxy)-N-isopropylbenzamide fumarate]	46 nM	0.053 nM	7 nM	~8.2 nM	> 15000 nM
CCN(C(=O)c1cc(F)ccc1Oc1nncnc1N1CCC2(C1)CN(C(CCCN)C(C)C)C2)C(C)C (centres unmarked) [Compound 3, 2-((5-(2-(6-amino-2-methylhexan-3-yl)-2,6-diazaspiro[3.4]octan-6-yl)-1,2,4-triazin-6-yl)oxy)-N-ethyl-5-fluoro-N-isopropylbenzamide formate]	310 nM	0.1 nM	42 nM	95 nM	> 15000 nM

The next lines start with results.

IC50 (OCI-AML3 cells)	IC50 [1]	IC50 (MOLM14 cells)	IC50 (MEIS1 mRNA)	SMILES	IC50 (KO-52 cells)
37 nM	0.097 nM	11 nM	10 nM	CC(C)[C@@H](C[C@@H](O)CN(C)C)N1CC2(CCN(c3ncnnc3Oc3ccc(F)cc3C(=O)N(C(C)C)C(C)C)C2)C1 (single isomer, unassigned) [Compound 365, 2-((5-(2-((3*R,5*R)-6-(dimethylamino)-5-hydroxy-2-methylhexan-3-yl)-2,6-diazaspiro[3.4]octan-6-yl)-1,2,4-triazin-6-yl)oxy)-5-fluoro-N,N-diisopropylbenzamide fumarate]	> 15000 nM
76 nM	0.088 nM	17 nM	20 nM	CC(C)[C@@H](C[C@H](O)CN(C)C)N1CC2(CCN(c3ncnnc3Oc3ccc(F)cc3C(=O)N(C(C)C)C(C)C)C2)C1 (single isomer, unassigned) [Compound 366]	> 15000 nM
810 nM	~0.59 nM	160 nM	61 nM	CCCN(C)C[C@H](O)C[C@H](C(C)C)N1CC2(CCN(c3ncnnc3Oc3ccc(F)cc3C(=O)N(CC)C(C)C)C2)C1 (single isomer, unassigned) [Compound 386, N-ethyl-5-fluoro-2-((5-(2-((3*R,5*R)-5-hydroxy-2-methyl-6-(methyl(propyl)amino)hexan-3-yl)-2,6-diazaspiro[3.4]octan-6-yl)-1,2,4-triazin-6-yl)oxy)-N-isopropylbenzamide fumarate]	9600 nM
2100 nM	0.9 nM	490 nM	160 nM	CCN(C)C[C@@H](O)C[C@H](C(C)C)N1CC2(CCN(c3ncnnc3Oc3ccc(F)cc3C(=O)N(C(C)C)C(C)C)C2)C1 (single isomer, unassigned) [Compound 391, 2-((5-(2-((3*R,5*S)-6-(ethyl(methyl)amino)-5-hydroxy-2-methylhexan-3-yl)-2,6-diazaspiro[3.4]octan-6-yl)-1,2,4-triazin-6-yl)oxy)-5-fluoro-N,N-diisopropylbenzamide fumarate]	> 15000 nM
